Patent US20140335251A1, “ANTIFUNGAL FLAVORING COMPOSITIONS” (FIRMENICH SA, priority 2011, published 2014)

Legend:
Type in all cases: cell-based
[1] = system: Pichia anomala (DSM 70783); assay: Growth inhibition in sucrose solution pH 5, OD after 21 days; settings: for Antifungal activity: pH 5, 21 days at 25° C.; for concentration at which active as single ingredient: sucrose solution pH 5, 21 days, tested at 25, 50, 75 ppm
Text: (§1) The term “effective” when used to describe the capacity of a composition to inhibit growth of a yeast or mould strain is defined as the ability of such composition to inhibit growth of the strain in a growth medium consisting of a 105 g/L sucrose solution with an initial inoculum of 10^2-10^3 cfu/mL of such yeast or mould strain, so that the average optical density of the growth medium, as measured at 380 nm for yeast strains and at 500 nm for mould strains, is maintained below 0.2 after 21 days of culture at 25° C. under aerobic conditions. The growth medium of which the optical density is measured consists of the growth medium as it is at the end of the 21 days growth period.
(§2) For the purposes of the present invention, growth inhibition activity of a given compound against one of the above mentioned strains is measured as follows:
(§3) A 105 g/L solution of sucrose in water is prepared. Preferably, the sucrose solution is at pH 3±0.2 or at pH 5±0.2, in which case the sucrose solution is more preferably autoclaved at 121° C. for 15 minutes and the pH is re-checked to ensure it remains within the required range.
(§4) Test samples are prepared in a microtiter plate comprising 100 μL of one of the sucrose solutions prepared above, together with an initial inoculum of the fungal strain of which growth is intended to be inhibited, so as to achieve a microbial level comprised between 10^2 and 10^3 cfu/mL.
(§5) The composition of which the antifungal activity is intended to be evaluated is then added to the microtiter plate. Dilutions of the tested composition in each test sample are prepared to afford the desired final concentration. The microtiter plates are then stored in a standard 25° C. incubator under aerobic conditions.
(§6) The optical density (OD) of each sample is measured just after addition of the composition (control) and after 21 days of incubation. The OD is measured at 380 nm for yeast strains and at 500 nm for mould strains.
(§7) All tests are done in triplicate to ensure statistical relevance of the results obtained.
(§8) Growth inhibition of a particular strain by an ingredient at a particular concentration is given if the OD measured after 21 days of culture in these conditions is below 0.2.
(§9) A 105 g/L solution of sucrose in water at pH 5±0.2 was prepared. The sucrose solution was autoclaved at 121° C. for 15 minutes and the pH was re-checked to ensure it remained within the range.
(§10) Test samples were then prepared in microtiter plates. An amount of 100 μL of sucrose solution prepared above was mixed with an inoculum of 20 μL of one fungal strain, so as to achieve a microbial level comprised between 10^2 and 10^3 cfu/mL.
(§11) Composition A was then added to the microtiter plate. Dilutions were prepared in the microtiter plate for each mixture of sucrose solution and inoculum to afford final concentrations of 75 ppm and 125 ppm of Composition A. One well for each mixture of sucrose solution and inoculum was kept free of Composition A, to serve as a control.
(§12) The microtiter plates were then stored in a standard 25° C. incubator under aerobic conditions.
(§13) The optical density (OD) of each sample was measured after 21 days of incubation using a Bio-Tek Synergy™ HT Multi-Mode Microplate Reader (from Labtech International, UK). The wavelength was set to 380 nm for yeast strains and to 500 nm for mould strains.
(§14) All tests were done in triplicate to ensure statistical relevance of the results obtained.
(§15) 2-Methylhexanoic acid, geranic acid and sorbic acid were separately tested for their antifungal properties using the method described in Example 1 for evaluation of Composition A, except that dilutions were prepared in the microtiter plate for each mixture of sucrose solution and inoculum to afford final concentrations of 25 ppm, 50 ppm and 75 ppm of the tested ingredient. […]

[2] = system: Pichia membranaefaciens (DSM 70369); assay: as above; settings: for Antifungal activity: pH 5, 21 days at 25° C.; for concentration at which active as single ingredient: sucrose solution pH 5, 21 days, tested at 25, 50, 75 ppm
Text: as §1, §2, §3, §4, §5, §6, §7, §8, §9, §10, §11, §12, §13, §14, §15

[3] = system: Zygosaccharomyces bailii (DSM 70492); assay: as above; settings: for Antifungal activity: pH 5, 21 days at 25° C., OD 380 nm
Text: The term “effective” when used to describe the capacity of a composition to inhibit growth of a yeast or mould strain is defined as the ability of such composition to inhibit growth of the strain in a growth medium consisting of a 105 g/L sucrose solution with an initial inoculum of 10^2-10^3 cfu/mL of such yeast or mould strain, so that the average optical density of the growth medium, as measured at 380 nm for yeast strains and at 500 nm for mould strains, is maintained below 0.2 after 21 days of culture at 25° C. under aerobic conditions. The growth medium of which the optical density is measured consists of the growth medium as it is at the end of the 21 days growth period. It therefore consists of the growth medium (sucrose solution at 105 g/L), together with the organisms which were able to grow during the 21 days culture period and the composition of the invention. For the purposes of the present invention, growth inhibition activity of a given compound against one of the above mentioned strains is measured as follows: A 105 g/L solution of sucrose in water is prepared. Preferably, the sucrose solution is at pH 3±0.2 or at pH 5±0.2, in which case the sucrose solution is more preferably autoclaved at 121° C. for 15 minutes and the pH is re-checked to ensure it remains within the required range. Test samples are prepared in a microtiter plate comprising 100 μL of one of the sucrose solutions prepared above, together with an initial inoculum of the fungal strain of which growth is intended to be inhibited, so as to achieve a microbial level comprised between 10^2 and 10^3 cfu/mL. The composition of which the antifungal activity is intended to be evaluated is then added to the microtiter plate. […] The microtiter plates are then stored in a standard 25° C. incubator under aerobic conditions. The optical density (OD) of each sample is measured just after addition of the composition (control) and after 21 days of incubation. The OD is measured at 380 nm for yeast strains and at 500 nm for mould strains. All tests are done in triplicate to ensure statistical relevance of the results obtained. Growth inhibition of a particular strain by an ingredient at a particular concentration is given if the OD measured after 21 days of culture in these conditions is below 0.2. A 105 g/L solution of sucrose in water at pH 5±0.2 was prepared. The sucrose solution was autoclaved at 121° C. for 15 minutes and the pH was re-checked to ensure it remained within the range. Test samples were then prepared in microtiter plates. […] Composition A was then added to the microtiter plate. […] One well for each mixture of sucrose solution and inoculum was kept free of Composition A, to serve as a control. The microtiter plates were then stored in a standard 25° C. incubator under aerobic conditions. The optical density (OD) of each sample was measured after 21 days of incubation using a Bio-Tek Synergy™ HT Multi-Mode Microplate Reader (from Labtech International, UK). The wavelength was set to 380 nm for yeast strains and to 500 nm for mould strains. All tests were done in triplicate to ensure statistical relevance of the results obtained.

each of the tested fungi = assay: Growth inhibition, summary over all tested strains; settings: even at 75 ppm; strains of Tables 3-4 or 9-10
Protocol: as §9, §10, §11, §12, §13, §14
2-Methylhexanoic acid, geranic acid and sorbic acid were separately tested for their antifungal properties using the method described in Example 1 for evaluation of Composition A, except that dilutions were prepared in the microtiter plate for each mixture of sucrose solution and inoculum to afford final concentrations of 25 ppm, 50 ppm and 75 ppm of the tested ingredient.
Composition B was then added to the microtiter plate.

[4] = 75 ppm, OD 380 nm (Examples 3-4)

Compound	Antifungal activity ([1]; 25 ppm, OD 380 nm (Example 4))	Antifungal activity ([1]; 50 ppm, OD 380 nm (Example 4))	Antifungal activity [1, 4]	concentration at which active as single ingredient [1]	Antifungal activity ([2]; 25 ppm, OD 380 nm (Example 4))	Antifungal activity ([2]; 50 ppm, OD 380 nm (Example 4))	Antifungal activity [2, 4]	concentration at which active as single ingredient [2]	Antifungal activity ([3]; 25 ppm)	Antifungal activity ([3]; 50 ppm)	Antifungal activity ([3]; 75 ppm)	concentration at which active as single ingredient ([3]; sucrose solution pH 5, 21 days, tested at 25, 50, 75 ppm)	Antifungal activity ([1]; 25 ppm, OD 380 nm)	Antifungal activity ([1]; 50 ppm, OD 380 nm)	Antifungal activity ([1]; 75 ppm, OD 380 nm)	Antifungal activity ([2]; 25 ppm, OD 380 nm)	Antifungal activity ([2]; 50 ppm, OD 380 nm)	Antifungal activity ([2]; 75 ppm, OD 380 nm)	antifungal activity as single ingredient against tested strains (each of the tested fungi)
O=C(O)c1ccccc1 [benzoic acid]	I (Letter I (for Inactive) is used when the measured OD was of at least 0.2)	A (Letter A (for Active) is indicated when the measured OD was below 0.2)	A (Letter A (for Active) is indicated when the measured OD was below 0.2)	50 ppm	I (Letter I (for Inactive) is used when the measured OD was of at least 0.2)	I (Letter I (for Inactive) is used when the measured OD was of at least 0.2)	A (Letter A (for Active) is indicated when the measured OD was below 0.2)	75 ppm	–	–	–	–	–	–	–	–	–	–	–
C/C=C/C=C/C(=O)O [Sorbic acid]	–	–	–	50 ppm	–	–	–	75 ppm	I (Letter I (for Inactive) is used when the measured OD was of at least 0.2)	I (Letter I (for Inactive) is used when the measured OD was of at least 0.2)	A (Letter A (for Active) is indicated when the measured OD was below 0.2)	75 ppm	I (Letter I (for Inactive) is used when the measured OD was of at least 0.2)	A (Letter A (for Active) is indicated when the measured OD was below 0.2)	A (Letter A (for Active) is indicated when the measured OD was below 0.2)	I (Letter I (for Inactive) is used when the measured OD was of at least 0.2)	I (Letter I (for Inactive) is used when the measured OD was of at least 0.2)	A (Letter A (for Active) is indicated when the measured OD was below 0.2)	–
CC(C)=CCC/C(C)=C/C(=O)O [Geranic acid]	–	–	–	–	–	–	–	–	I (Letter I (for Inactive) is used when the measured OD was of at least 0.2)	I (Letter I (for Inactive) is used when the measured OD was of at least 0.2)	I (Letter I (for Inactive) is used when the measured OD was of at least 0.2)	–	I (Letter I (for Inactive) is used when the measured OD was of at least 0.2)	I (Letter I (for Inactive) is used when the measured OD was of at least 0.2)	I (Letter I (for Inactive) is used when the measured OD was of at least 0.2)	I (Letter I (for Inactive) is used when the measured OD was of at least 0.2)	I (Letter I (for Inactive) is used when the measured OD was of at least 0.2)	I (Letter I (for Inactive) is used when the measured OD was of at least 0.2)	inactive
CCCCC(C)C(=O)O (centres unmarked) [2-Methylhexanoic acid]	–	–	–	–	–	–	–	–	I (Letter I (for Inactive) is used when the measured OD was of at least 0.2)	I (Letter I (for Inactive) is used when the measured OD was of at least 0.2)	I (Letter I (for Inactive) is used when the measured OD was of at least 0.2)	–	I (Letter I (for Inactive) is used when the measured OD was of at least 0.2)	I (Letter I (for Inactive) is used when the measured OD was of at least 0.2)	I (Letter I (for Inactive) is used when the measured OD was of at least 0.2)	I (Letter I (for Inactive) is used when the measured OD was of at least 0.2)	I (Letter I (for Inactive) is used when the measured OD was of at least 0.2)	I (Letter I (for Inactive) is used when the measured OD was of at least 0.2)	inactive
CCC(=O)O [Propanoic acid]	I (Letter I (for Inactive) is used when the measured OD was of at least 0.2)	I (Letter I (for Inactive) is used when the measured OD was of at least 0.2)	I (Letter I (for Inactive) is used when the measured OD was of at least 0.2)	–	I (Letter I (for Inactive) is used when the measured OD was of at least 0.2)	I (Letter I (for Inactive) is used when the measured OD was of at least 0.2)	I (Letter I (for Inactive) is used when the measured OD was of at least 0.2)	–	–	–	–	–	–	–	–	–	–	–	inactive
